{
  "source": "patent EP0420552A2",
  "about": "“New antifungal antibiotic, and the production and uses of same” (ZAIDAN HOJIN BISEIBUTSU KAGAKU KENKYU KAI, priority 1989, dated 1991)",
  "key": {"[1]": {"test_system": "Cochliobolus miyabeanus", "assay": "MIC by standard serial dilution method on nutrient agar", "assay_type": "cell-based", "details": "Bipolaris oryzae, 42 h, pH 7, read-out: Minimum inhibitory concentrations"}, "[2]": {"test_system": "Aspergillus niger F-16", "assay": "MIC by standard serial dilution method on nutrient agar", "assay_type": "cell-based", "details": "F16, nutrient agar medium containing 1% glucose (pH 7.0), 27°C, 42 hours, read-out: Minimum inhibitory concentrations", "procedure": "(§1) The minimum inhibitory concentrations (MIC., mcg/ml) of dexylosylbenanomicin A against a variety of fungi were determined by a standard serial dilution method on a nutrient agar medium containing 1% glucose (pH 7.0) after incubation at 27°C for 42 hours and are shown in Table 1 below."}, "[3]": {"test_system": "Candida pseudotropicalis F-2", "assay": "MIC by standard serial dilution method on nutrient agar", "assay_type": "cell-based", "details": "Kluyveromyces marxianus, F2, nutrient agar medium containing 1% glucose (pH 7.0), 27°C, 42 hours, read-out: Minimum inhibitory concentrations", "procedure": "as §1"}, "[4]": {"test_system": "Saccharomyces cerivisiae F-7", "assay": "MIC by standard serial dilution method on nutrient agar", "assay_type": "cell-based", "details": "F7, nutrient agar medium containing 1% glucose (pH 7.0), 27°C, 42 hours, read-out: Minimum inhibitory concentrations", "procedure": "as §1"}, "[5]": {"test_system": "Candida albicans 3147", "assay": "MIC by standard serial dilution method on nutrient agar", "assay_type": "cell-based", "details": "nutrient agar medium containing 1% glucose (pH 7.0), 27°C, 42 hours, read-out: Minimum inhibitory concentrations", "procedure": "as §1"}, "[6]": {"test_system": "Candida tropicalis F-1", "assay": "MIC by standard serial dilution method on nutrient agar", "assay_type": "cell-based", "details": "F1, nutrient agar medium containing 1% glucose (pH 7.0), 27°C, 42 hours, read-out: Minimum inhibitory concentrations", "procedure": "as §1"}, "[7]": {"test_system": "Trichophyton asteroides 429", "assay": "MIC by standard serial dilution method on nutrient agar", "assay_type": "cell-based", "details": "nutrient agar medium containing 1% glucose (pH 7.0), 27°C, 42 hours, read-out: Minimum inhibitory concentrations", "procedure": "as §1"}, "[8]": {"test_system": "Candida krusei F-5", "assay": "MIC by standard serial dilution method on nutrient agar", "assay_type": "cell-based", "details": "Pichia kudriavzevii, F5, nutrient agar medium containing 1% glucose (pH 7.0), 27°C, 42 hours, read-out: Minimum inhibitory concentrations", "procedure": "as §1"}, "[9]": {"test_system": "Trichophyton mentagrophytes (883)", "assay": "MIC by standard serial dilution method on nutrient agar", "assay_type": "cell-based", "details": "nutrient agar medium containing 1% glucose (pH 7.0), 27°C, 42 hours, read-out: Minimum inhibitory concentrations", "procedure": "as §1"}, "[10]": {"test_system": "Pellicularia sasakii", "assay": "MIC by standard serial dilution method on nutrient agar", "assay_type": "cell-based", "details": "nutrient agar medium containing 1% glucose (pH 7.0), 27°C, 42 hours, read-out: Minimum inhibitory concentrations", "procedure": "as §1"}, "[11]": {"test_system": "Cryptococcus neoformans F-10", "assay": "MIC by standard serial dilution method on nutrient agar", "assay_type": "cell-based", "details": "F10, nutrient agar medium containing 1% glucose (pH 7.0), 27°C, 42 hours, read-out: Minimum inhibitory concentrations", "procedure": "as §1"}, "[12]": {"test_system": "Candida Yu-1200", "assay": "MIC by standard serial dilution method on nutrient agar", "assay_type": "cell-based", "details": "YU1200, nutrient agar medium containing 1% glucose (pH 7.0), 27°C, 42 hours, read-out: Minimum inhibitory concentrations", "procedure": "as §1"}, "[13]": {"test_system": "Pyricularia oryzae", "assay": "microbe, parasite or virus in culture", "assay_type": "cell-based", "details": "42 h, pH 7, read-out: Minimum inhibitory concentrations"}, "[14]": {"test_system": "Xanthomonas oryzae", "assay": "microbe, parasite or virus in culture", "assay_type": "cell-based", "details": "42 h, pH 7, read-out: Minimum inhibitory concentrations"}, "[15]": {"assay": "Acute toxicity in mice upon intravenous administration", "assay_type": "in vivo", "details": "ICR mice (female, 4-week old, body weight of 19 to 21 g)", "procedure": "Dexylosylbenanomicin A is of low toxicity to mammals, as it was shown that for estimation of acute toxicity in mice upon intravenous administration, dexylosylbenanomicin A was administered via the intravenous route to ICR mice (female, 4-week old, body weight of 19 to 21 g), the mice tolerated a dosage of 300 mg/kg of this new antibiotic."}, "[16]": {"test_system": "Xanthomonas citri", "assay": "MIC by standard serial dilution method on nutrient agar", "assay_type": "cell-based", "details": "42 h, pH 7, read-out: Minimum inhibitory concentrations"}, "[17]": {"assay": "Solubility in organic solvents"}},
  "data": [
    {"smiles": "COc1cc(O)c2c(c1)C(=O)c1c(cc3c(c1O)-c1c(cc(C)c(C(=O)N[C@H](C)C(=O)O)c1O)[C@H](O[C@@H]1O[C@H](C)[C@H](O)[C@H](O)[C@H]1O)[C@H]3O)C2=O", "note": "[dexylosylbenanomicin A]", "values": [
      {"measurement": "MIC", "setting": "[1]", "result": "> 25", "unit": "µg/mL"},
      {"measurement": "MIC", "setting": "[2]", "result": 50, "unit": "µg/mL"},
      {"measurement": "MIC", "setting": "[3]", "result": 3.13, "unit": "µg/mL"},
      {"measurement": "MIC", "setting": "[4]", "result": 3.13, "unit": "µg/mL"},
      {"measurement": "MIC", "setting": "[5]", "result": 12.5, "unit": "µg/mL"},
      {"measurement": "MIC", "setting": "[6]", "result": 12.5, "unit": "µg/mL"},
      {"measurement": "MIC", "setting": "[7]", "result": "> 25", "unit": "µg/mL"},
      {"measurement": "MIC", "setting": "[8]", "result": 50, "unit": "µg/mL"},
      {"measurement": "MIC", "setting": "[9]", "result": "> 25", "unit": "µg/mL"},
      {"measurement": "MIC", "setting": "[10]", "result": 25, "unit": "µg/mL"},
      {"measurement": "MIC", "setting": "[11]", "result": 12.5, "unit": "µg/mL"},
      {"measurement": "MIC", "setting": "[12]", "result": 6.25, "unit": "µg/mL"},
      {"measurement": "MIC", "setting": "[13]", "result": 50, "unit": "µg/mL"},
      {"measurement": "MIC", "setting": "[14]", "result": 100, "unit": "µg/mL"},
      {"measurement": "acute toxicity: tolerated dosage", "setting": "[15]", "result": 300, "unit": "mg/kg"},
      {"measurement": "MIC", "setting": "[16]", "result": "> 100", "unit": "µg/mL"},
      {"measurement": "Solubility", "setting": "[17]; in chloroform, ethyl acetate, acetone and methanol", "result": "Sparingly soluble"},
      {"measurement": "Solubility", "setting": "[17]; in dimethyl sulfoxide and N,N-dimethylformamide", "result": "soluble"}
    ]}
  ]
}
